Source: US20040157799A1, “Pharmaceutical uses of bisphosphonates” (priority 2004, published 2004)

How the values were obtained:
[1] = system: prostate cancer patients with a history of metastatic bone disease; experiment: double-blind, placebo-controlled clinical study of zoledronic acid: skeletal-related events; format: in vivo, human; conditions: for patients with at least one skeletal-related event: i.v. every 3 weeks, placebo 44.2% (N=208); for patients with pathologic fractures: placebo 22.1%; for median time to the first skeletal-related event: placebo 320 days
Text: Skeletal-related events (SREs) are defined as pathologic bone fracture events, spinal cord compression events, surgery to bone, radiation therapy to bone (including the use of radioisotopes) and a change of antineoplastic therapy to treat bone pain. Thus, SREs are the primary end-points in this study. The key efficacy endpoints are the proportion of patients having at least one SRE and the time to first SRE.
Secondary objectives are to assess the effect of zoledronic acid therapy on pain scores, analgesic use, performance status, Quality of Life scores, time to termination of active study participation, and to assess the safety and tolerability of zoledronate. Changes in bone resorption and formation markers are also evaluated. Bone mineral density measurements are evaluated in patients at selected clinical centers. In addition, time to progression of disease in bone and time to overall progression of disease are evaluated.
This study is an international, multicenter, randomized, double-blind, placebo-controlled, parallel study. […] The rising serum PSA level is documented by three consecutively rising serum PSA measurements (i.e., the third PSA level is to be>the second PSA level which is >the first PSA level which is >the nadir serum PSA concentration achieved during first-line hormonal therapy for metastatic prostate cancer), each separated from the other by at least two weeks. The rising serum PSA level represents an “early” event in the development of progressive metastatic disease.
Patients are randomized in a double-blind fashion to receive either zoledronate 4 mg intravenously, or zoledronate 8 mg intravenously, or a placebo intravenous infusion every three weeks in addition to their antineoplastic therapy. The randomized treatment assignment ratio is to be 1:1:1. In addition, all patients are to receive 500 mg of calcium orally and a multivitamin tablet (containing 400-500 I.U. of vitamin D) daily throughout the study.
The occurrence of skeletal-related events (SRE's) is collected throughout the trial for each patient in order to determine the proportion of patients experiencing at least one SRE, the time to the first SRE, and the skeletal morbidity rate (see section 4). Time to progression of disease in bone is assessed centrally (central radiologist) by review of serial bone radiographic studies. Time to overall progression of disease is determined by the patient's treating physician: by evaluating the central assessments (central radiologist) of serial bone radiographic studies; by evaluating the central assessments (central radiologist) of appropriate serial radiographic studies of non-skeletal tumor sites, if present; by evaluating serial serum PSA levels; and by evaluating serial patient weight measurements. Quality of Life, performance status, health care utilization and productivity loss data, and pain, and analgesic use scores are determined serially throughout the study. This information is also collected for those patients who discontinue active therapy within 24 months from the date of randomization into the study. Information about adverse events which occur during the patient's clinical course is collected throughout the study.
The study is made up of two phases, phase 1, the Efficacy and Safety Phase, and phase 2, the Extension Phase. The primary efficacy analysis is performed at the completion of phase 1, the Efficacy and Safety Phase, which consists of 60 weeks (20 cycles) of study treatment. Phase 2 consists of an additional 36 weeks (12 cycles) of study therapy. The primary purpose of phase 2 is to obtain long-term zoledronate treatment safety and survival data, however efficacy data will continue to be collected. […] No interim analyses are planned. […]

[2] = system: prostate cancer cell lines; conditions: in vitro treatment (Brown et al.; Lee et al.); cited from earlier work
[3] = system: subcutaneous prostate cancer cell line tumours; conditions: subcutaneous prostate cancer cell line tumours (Corey et al.); cited from earlier work

## O=P(O)(O)C(O)(Cn1ccnc1)P(=O)(O)O [zoledronic acid, 2-(imidazol-1yl)-1-hydroxyethane-1,1-diphosphonic acid]
[1]; 4 mg 15-minute infusions every 3 weeks, metastatic prostate cancer refractory to hormonal therapy
  effect on skeletal-related events: significantly reduce skeletal-related events
[1]; 4 mg given as a 15-minute infusion
  tolerability: well-tolerated
[1]; prostate cancer patients, double blind, placebo-controlled
  efficacy in the treatment of bone metastases vs. placebo: statistically significant efficacy benefit over placebo
[1]; zoledronic acid 4 mg group (N=214), p=0.021 vs. placebo
  patients with at least one skeletal-related event: 33.2%
[1]; zoledronic acid 4 mg group, p=0.015 vs. placebo
  patients with pathologic fractures: 13.1%
[1]; zoledronic acid 4 mg group, p=0.011 vs. placebo
  median time to the first skeletal-related event: not reached
[1]; zoledronic acid 8/4 mg group (N=221), p=0.222 vs. placebo
  patients with at least one skeletal-related event: 38.5%
[1]; zoledronic acid 8/4 mg group, p=0.054 vs. placebo
  patients with pathologic fractures: 14.9%
[1]; zoledronic acid 8/4 mg group, p=0.491 vs. placebo
  median time to the first skeletal-related event: 363 days
[2]
  growth of prostate cancer cell lines: significantly reduced the growth of the cell lines
[3]
  tumour volume: no significant decrease in tumour volume
